The test concerns the target recombinant human CETP protein (Homo sapiens (Human), UniProt P11597). Briefly: Test of CETP inhibition activity (in vitro, buffer-based). The test is classed as biochemical. To be noted: [14C]-cholesteryl ester transfer from reconstituted HDL to acceptor lipoprotein, 37° C., 60 minutes, PBS buffer. Here is the method: Test of CETP Inhibition Activity (In Vitro, Buffer-Based)
(1) Preparation of Reconstituted HDL
Cholesterol (1.125 μmol), phosphatidyl choline (4.5 μmol) and [^14C]-labeled cholesteryl ester (2.0 μCi; 40 μl) were taken in a glass test tube and well mixed with a vortex, and dried under a nitrogen gas current so that it formed a thin film. The obtained mixture was dissolved in ethanol (200 μl), which was designated as Solution A. A PBS solution [a mixed solution of Na2HPO4 (30 mM), KH2PO4 (8.8 mM), NaCl (60 mM) and EDTA (pH 7.4; 0.67 mM); 4 ml] was taken in a tube and the reaction solution was vigorously stirred with a vortex under a nitrogen current. The above-described Solution A was gently injected into this mixture with a syringe and the reaction solution was vigorously stirred with a vortex for 5 minutes under a nitrogen current. Sodium cholate (200 mM; 0.38 ml) was added to the obtained mixture and the reaction solution was stirred for 2 minutes. ApoA-I protein (3 mg) was added to the obtained mixture and the reaction solution was stirred for 2 minutes. The obtained mixture was adjusted to 5 ml with the PBS solution and then dialyzed with the PBS solution. The obtained mixture was designated as the reconstituted HDL.
(2) Preparation of Acceptor Lipoprotein
NaBr was added to the plasma of a healthy person and the density of the mixture was adjusted to 1.019, and the mixture was subjected to density gradient centrifugation (40000 rpm, for 16 hours) to remove the fraction having a density of less than 1.019. NaBr was added to the obtained mixture and the density of the solution was adjusted to 1.063, and the solution was subjected to density gradient centrifugation (40000 rpm, 18 hours) to provide the fraction consisting of IDL (intermediate density lipoprotein) and LDL (1.019<density<1.063). The obtained fraction was dialyzed with the PBS solution. The obtained mixture was designated as the acceptor lipoprotein.
(3) Measurement of CETP Inhibition Activity
A recombinant human CETP protein (manufactured by Roar Biomedical Inc.; 4.5 ng), the acceptor lipoprotein described in (2) above (32.5 μg) and 5,5′-dithio-bis-(2-nitrobenzoic acid) (7 mM, 15 μl) were taken in a 96 well plate and the total amount of the mixture was adjusted to 48.5 μl with the PBS solution. The test compound [DMSO solution (concentration: 0.15, 0.5, 1.5, 5, 15, 50, 150 and 500 μM); 1.5 μl] was added to each well and the mixture was incubated in a thermostatic bath at 37° C. for 60 minutes. The reconstituted HDL (50 μl) described in (1) above was added to each well and the mixture was reacted in a thermostatic bath at 37° C. for 60 minutes. The 96 well plate was moved onto ice and a precipitation reagent [a mixed solution of magnesium chloride (60 mM) and 0.1% dextran sulfate[1/1(v/v)]; 15 μl] was added to each well, and then the mixture was allowed to stand on ice for 15 minutes. The reaction solution (80 μl) in each well was moved to a filter plate and centrifuged at 1500 rpm for 1 minute, and the filtrate which passed through the filter was designated as the HDL fraction and the radioactivity thereof was measured with a scintillation counter. The percentage decrease in radioactivity in the case where the test compound was added in comparison with that in case where the test compound was not added was designated as the percentage CETP inhibition. The IC50 value was calculated from the percentage CETP inhibition.

The structures appear in SMILES notation. Where a name gives a salt, the structure may show the parent alone.

Sequence of recombinant human CETP protein (P11597 18-493): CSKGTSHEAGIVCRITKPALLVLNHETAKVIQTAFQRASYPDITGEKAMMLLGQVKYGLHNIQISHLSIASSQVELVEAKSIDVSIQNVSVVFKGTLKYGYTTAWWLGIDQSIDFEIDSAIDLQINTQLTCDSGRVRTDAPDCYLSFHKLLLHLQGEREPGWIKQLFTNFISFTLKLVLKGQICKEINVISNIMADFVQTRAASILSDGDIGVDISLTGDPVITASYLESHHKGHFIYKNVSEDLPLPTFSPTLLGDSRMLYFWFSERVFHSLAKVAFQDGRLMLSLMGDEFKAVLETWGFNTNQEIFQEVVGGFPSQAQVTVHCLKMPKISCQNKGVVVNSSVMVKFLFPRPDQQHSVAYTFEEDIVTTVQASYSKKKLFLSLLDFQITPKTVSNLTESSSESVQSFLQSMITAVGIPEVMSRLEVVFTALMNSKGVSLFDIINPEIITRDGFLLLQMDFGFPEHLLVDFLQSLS

What is called IC50 is the concentration that gives 50% inhibition. Consider `CC1(C)Cc2nc(C3CCN(c4ncc(OCC(C)(CO)CO)cn4)CC3)c([C@@H](F)c3ccc(C(F)(F)F)cc3)c(C3CCC(F)(F)CC3)c2[C@@H](O)C1` [Example 3, (5S)-4-(4,4-Difluorocyclohexyl)-3-{(S)-fluoro[4-(trifluoromethyl)phenyl]methyl}-2-(1-{5-[3-hydroxy-2-(hydroxymethyl)-2-methylpropoxy]pyrimidin-2-yl}piperidin-4-yl)-7,7-dimethyl-5,6,7,8-tetrahydroquinolin-5-ol dihydrobromide], for which the half-inhibitory concentration (IC50) (dihydrobromide) amounted to 39.3 nM.

On to `CC1(C)Cc2nc(C3CCN(c4ncc(OCC(C)(CO)CO)cn4)CC3)c([C@@H](F)c3ccc(C(F)(F)F)cc3)c(C3CCC(F)(F)CC3)c2[C@@H](O)C1` [Example 4, (5S)-4-(4,4-Difluorocyclohexyl)-3-{(S)-fluoro[4-(trifluoromethyl)phenyl]methyl}-2-(1-{5-[3-hydroxy-2-(hydroxymethyl)-2-methylpropoxy]pyrimidin-2-yl}piperidin-4-yl)-7,7-dimethyl-5,6,7,8-tetrahydroquinolin-5-ol dihydrochloride], for which, under “dihydrochloride”, the IC50 came out at 22.3 nM.

In the case of `CC1(C)Cc2nc(C3CCN(c4ncc(OCCCS(C)(=O)=O)cn4)CC3)c([C@@H](F)c3ccc(C(F)(F)F)cc3)c(C3CCC(F)(F)CC3)c2[C@@H](O)C1` [Example 17, (5S)-4-(4,4-Difluorocyclohexyl)-3-{(S)-fluoro[4-(trifluoromethyl)phenyl]methyl}-7,7-dimethyl-2-(1-{5-[3-(methylsulfonyl)propoxy]pyrimidin-2-yl}piperidin-4-yl)-5,6,7,8-tetrahydroquinolin-5-ol dihydrochloride], the IC50 (dihydrochloride) was 10 nM.

In the case of `CC1(C)Cc2nc(C3CCN(c4ncc(OC[C@H](O)CO)cn4)CC3)c([C@@H](F)c3ccc(C(F)(F)F)cc3)c(C3CCC(F)(F)CC3)c2[C@@H](O)C1` [Example 15, (5S)-4-(4,4-Difluorocyclohexyl)-2-[1-(5-{[(2R)-2,3-dihydroxypropyl]oxy}pyrimidin-2-yl)piperidin-4-yl]-3-{(S)-fluoro[4-(trifluoromethyl)phenyl]methyl}-7,7-dimethyl-5,6,7,8-tetrahydroquinolin-5-ol dihydrochloride], the IC50 (dihydrochloride) is 38 nM.

For `CC1(C)Cc2nc(C3CCN(c4ncc(OCC(CO)CO)cn4)CC3)c([C@@H](F)c3ccc(C(F)(F)F)cc3)c(C3CCC(F)(F)CC3)c2[C@@H](O)C1` [Example 2, (5S)-4-(4,4-Difluorocyclohexyl)-3-{(S)-fluoro[4-(trifluoromethyl)phenyl]methyl}-2-(1-{5-[3-hydroxy-2-(hydroxymethyl)propoxy]pyrimidin-2-yl}piperidin-4-yl)-7,7-dimethyl-5,6,7,8-tetrahydroquinolin-5-ol dihydrobromide], the IC50 came to 30.8 nM.

On to `CC1(C)Cc2nc(C3CCN(c4ncc(OCCCS(C)(=O)=O)cn4)CC3)c([C@@H](F)c3ccc(C(F)(F)F)cc3)c(C3CCC(F)(F)CC3)c2[C@@H](O)C1` [Example 18, (5S)-4-(4,4-Difluorocyclohexyl)-3-{(S)-fluoro[4-(trifluoromethyl)phenyl]methyl}-7,7-dimethyl-2-(1-{5-[3-(methylsulfonyl)propoxy]pyrimidin-2-yl}piperidin-4-yl)-5,6,7,8-tetrahydroquinolin-5-ol dihydrobromide], for which the IC50 (dihydrobromide) stood at 18.9 nM.

Consider `CC1(C)Cc2nc(C3CCN(c4ncc(OC[C@@H](O)CO)cn4)CC3)c([C@@H](F)c3ccc(C(F)(F)F)cc3)c(C3CCC(F)(F)CC3)c2[C@@H](O)C1` [Example 13, (5S)-4-(4,4-Difluorocyclohexyl)-2-[1-(5-{[(2S)-2,3-dihydroxypropyl]oxy}pyrimidin-2-yl)piperidin-4-yl]-3-{(S)-fluoro[4-(trifluoromethyl)phenyl]methyl}-7,7-dimethyl-5,6,7,8-tetrahydroquinolin-5-ol dihydrochloride], for which the half-inhibitory concentration (IC50) (dihydrochloride) is 58.4 nM.

With `CC(C)(O)CCOc1cnc(N2CCC(c3nc4c(c(C5CCC(F)(F)CC5)c3[C@@H](F)c3ccc(C(F)(F)F)cc3)[C@@H](O)CC(C)(C)C4)CC2)nc1` [Example 10, (5S)-4-(4,4-Difluorocyclohexyl)-3-{(S)-fluoro[4-(trifluoromethyl)phenyl]methyl}-2-{1-[5-(3-hydroxy-3-methylbutoxy)pyrimidin-2-yl]piperidin-4-yl}-7,7-dimethyl-5,6,7,8-tetrahydroquinolin-5-ol maleate], where the note is “maleate”, the IC50 was determined as 13 nM.

`CC(C)(O)CCOc1cnc(N2CCC(c3nc4c(c(C5CCC(F)(F)CC5)c3[C@@H](F)c3ccc(C(F)(F)F)cc3)[C@@H](O)CC(C)(C)C4)CC2)nc1` [Example 8, (5S)-4-(4,4-Difluorocyclohexyl)-3-{(S)-fluoro[4-(trifluoromethyl)phenyl]methyl}-2-{1-[5-(3-hydroxy-3-methylbutoxy)pyrimidin-2-yl]piperidin-4-yl}-7,7-dimethyl-5,6,7,8-tetrahydroquinolin-5-ol disuccinate]: where the note is “disuccinate”, the IC50 was determined as 22.7 nM.

As for `CC1(C)Cc2nc(C3CCN(c4ncc(OCC(C)(CO)CO)cn4)CC3)c([C@@H](F)c3ccc(C(F)(F)F)cc3)c(C3CCC(F)(F)CC3)c2[C@@H](O)C1` [Example 5, (5S)-4-(4,4-Difluorocyclohexyl)-3-{(S)-fluoro[4-(trifluoromethyl)phenyl]methyl}-2-(1-{5-[3-hydroxy-2-(hydroxymethyl)-2-methylpropoxy]pyrimidin-2-yl}piperidin-4-yl)-7,7-dimethyl-5,6,7,8-tetrahydroquinolin-5-ol methanesulfonate], the IC50 was found to be 28.5 nM.

With `CC1(C)Cc2nc(C3CCN(c4ncc(OCC(CO)CO)cn4)CC3)c([C@@H](F)c3ccc(C(F)(F)F)cc3)c(C3CCC(F)(F)CC3)c2[C@@H](O)C1` [Example 1, (5S)-4-(4,4-Difluorocyclohexyl)-3-{(S)-fluoro[4-(trifluoromethyl)phenyl]methyl}-2-(1-{5-[3-hydroxy-2-(hydroxymethyl)propoxy]pyrimidin-2-yl}piperidin-4-yl)-7,7-dimethyl-5,6,7,8-tetrahydr oquinolin-5-ol dihydrochloride], for the setting “dihydrochloride”, the IC50 amounted to 35.2 nM.

`CC1(C)Cc2nc(C3CCN(c4ncc(OC[C@@H](O)CO)cn4)CC3)c([C@@H](F)c3ccc(C(F)(F)F)cc3)c(C3CCC(F)(F)CC3)c2[C@@H](O)C1` [Example 14, (5S)-4-(4,4-Difluorocyclohexyl)-2-[1-(5-{[(2S)-2,3-dihydroxypropyl]oxy}pyrimidin-2-yl)piperidin-4-yl]-3-{(S)-fluoro[4-(trifluoromethyl)phenyl]methyl}-7,7-dimethyl-5,6,7,8-tetrahydroquinolin-5-ol dihydrobromide]: the IC50 turned out to be 38.2 nM.

On to `CC1(C)Cc2nc(C3CCN(c4ncc(-c5cccc(C(=O)O)c5)cn4)CC3)c([C@@H](F)c3ccc(C(F)(F)F)cc3)c(C3CCC(F)(F)CC3)c2[C@@H](O)C1` [Example 21, (5S)-2-{1-[5-(3-Carboxyphenyl)pyrimidin-2-yl]piperidin-4-yl}-4-(4,4-difluorocyclohexyl)-3-{(S)-fluoro[4-(trifluoromethyl)phenyl]methyl}-7,7-dimethyl-5,6,7,8-tetrahydroquinolin-5-ol dihydrobromide], for which the concentration for half-maximal inhibition (IC50) (dihydrobromide) was determined as 279 nM.

Take `CC1(C)Cc2nc(C3CCN(c4ncc(-c5cccc(C(=O)O)c5)cn4)CC3)c([C@@H](F)c3ccc(C(F)(F)F)cc3)c(C3CCC(F)(F)CC3)c2[C@@H](O)C1` [Example 20, (5S)-2-{1-[5-(3-Carboxyphenyl)pyrimidin-2-yl]piperidin-4-yl}-4-(4,4-difluorocyclohexyl)-3-{(S)-fluoro[4-(trifluoromethyl)phenyl]methyl}-7,7-dimethyl-5,6,7,8-tetrahydroquinolin-5-ol dihydrochloride]: the half-inhibitory concentration (IC50) (dihydrochloride) is 289 nM.

For the origin of these results see patent publication US9321747B2, “Acid addition salt of substituted pyridine compound” (DAIICHI SANKYO COMPANY, LIMITED, priority 2012, dated 2016).
